Results reported in PMC3183052, “Immunoprotectivity of HLA-A2 CTL Peptides Derived from Respiratory Syncytial Virus Fusion Protein in HLA-A2 Transgenic Mouse” (PLoS ONE, 2011).

Legend:
[1] = system: splenocytes from HLA-A*0201 transgenic C57BL/6 mice; experiment: IFN-γ ELISPOT of splenocytes restimulated with peptide; type: cell-based, mouse; details: for IFN-γ ELISPOT, RSV: splenocytes of HLA-Tg B6 mice primed and boosted i.n. with 10^4 pfu RSV-B1; for IFN-γ ELISPOT, RSV / IFN-γ ELISPOT, rAd-F0: restimulated with 2 µg peptide, representative of two experiments, five mice per group; for IFN-γ ELISPOT, rAd-F0: splenocytes of HLA-Tg B6 mice primed and boosted i.n. with 10^7 pfu rAd-F0; for IFN-γ level in restimulated splenocytes (ELISPOT, text grading): splenocytes of rAd-F0- or RSV B1-primed and boosted HLA-Tg B6 mice, high = over 100 spots, moderate = over 50 spots
Procedure: (§1) To screen the immunodominance of epitopic peptide in the induction of RSV-F specific Th1/Th2 expression, HLA-A*0201 transgenic C57BL/6 mice were anesthetized with isoflurane and immunized with 1×10^7 pfu/50 µL of rAd-F0 or rAd-LacZ or 1×10^4 live RSV B1 via the intranasal (i.n.) route. Twenty days later, the mice were given booster immunization i.n. with the same dose. After 10 days of boost, mice were sacrificed and splenocytes were isolated for the cytokine ELISPOT assay. For peptide-based vaccination, transgenic mice were immunized subcutaneously (s.c.) with 50 µg of the individual synthetic peptides emulsified in 25 µL of incomplete Freund's adjuvant (IFA) (Sigma-Aldrich) and then boosted after 10 days s.c. with the same dose of the respective peptides mixed with IFA. Mice were sacrificed 7 days after the booster and splenocytes were isolated for in vitro peptide-restimulation. For challenge studies, 10^7 pfu of live RSV-B1 was administered i.n. seven days after the booster immunization with peptide vaccines. Mice were sacrificed on day 4 post-challenge and the lung tissues were collected and subjected to further analysis by flow cytometry, ELISA, CTL assay and immunohistochemistry. Mice body weight was monitored daily.
(§2) […] RBC-free splenocyte suspensions prepared from the individual mice were seeded in individual wells of 96-well filtration plates (Millipore) precoated with capturing monoclonal antibodies for murine IL-2, IL-4 or IFN-γ (0.5 µg/ well) (eBioscience) and blocked with conditioned medium (CM) for 1 hour at room temperature. The splenocytes were added with the individual RSV F 9-mer synthetic peptides (2 µg each) or GLC-9 dissolved in CM (100 µL). The splenocytes added with Con A (10 µg/mL) were used as positive control. Unstimulated splenocytes were used as negative control. The plates were kept in a 37°C incubator equilibrated with 5% CO2 for 48 hours. The individual wells of the ELISPOT plates were washed three times with washing buffer (0.05% tween20 in PBS, PBS-T), and then 0.2 µg of the corresponding biotinylated detection monoclonal antibodies specific for IL-2, IL-4 and IFN-γ were added to detect the respective cytokines. After 2 hours of incubation at room temperature, the plates were washed and 100 µl of streptavidin-alkaline phosphatase (1∶ 250 dilution) was added to the individual wells, and the plates were incubated at room temperature for 45 minutes. Finally, the plates were washed four times with the wash buffer, and 100 µl of AEC (3-amine-9-ethylcarbazole, Sigma-Aldrich) substrate was added to each well and allowed to react for 30 minutes at room temperature in the dark. The plates were then washed with water, air-dried overnight, and the spots per well were scored using the immunospot counting reader (C.T.L. IMMUNOSPOT, CELLULAR TECHNOLOGY LTD). Results were expressed as the number of cytokine-secreting cells per 5×10^5 splenocytes seeded in the initial culture.
(§3) Figure 1 Induction of IFN-γ and IL-2 in splenocytes from RSV F peptide immunized HLA-A*0201 transgenic mice upon secondary recall. Splenocytes harvested on day 30 from HLA-A-Tg B6 mice primed and boosted at 20 days interval intranasally with 10^7 pfu of rAd-F0 (□) or 10^4 pfu of RSV-B1 (▪)were restimulated with 2 µg of the individual RSV F peptide or 10 µg/ml Con A for 5 days in the presence of murine IL-2 . After stimulation, 5×10^5 splenocytes were seeded to anti-IFN-γ (A) or anti-IL-2 (B) capture antibody coated ELISPOT plates for 2 days for ELISPOT assay as described in Materials and Methods. Cytokine-positive immunospots were developed and the results are expressed as the number of immunospots +/−2 standard deviations for each experimental group. Data is representative of results derived from two independent experiments, each with five mice per group.

[2] = system: splenocytes from HLA-A*0201 transgenic C57BL/6 mice; experiment: IL-2 ELISPOT of splenocytes restimulated with peptide; type: cell-based, mouse; details: for IL-2 ELISPOT, RSV: splenocytes of HLA-Tg B6 mice primed and boosted i.n. with 10^4 pfu RSV-B1; for IL-2 ELISPOT, RSV / IL-2 ELISPOT, rAd-F0: restimulated with 2 µg peptide, representative of two experiments, five mice per group; for IL-2 ELISPOT, rAd-F0: splenocytes of HLA-Tg B6 mice primed and boosted i.n. with 10^7 pfu rAd-F0; for IL-2 level in restimulated splenocytes (ELISPOT, text grading): splenocytes of rAd-F0- or RSV B1-primed and boosted HLA-Tg B6 mice, high = over 100 spots, moderate = over 50 spots
Procedure: as §1, §2, §3

[3] = target: T1, HLA-A*0201 (Homo sapiens, UniProt P04439, D140Y/D185E/D98H/E176V/E277Q/G131W/G231S/I119V/I121R/I166T/I218V/L300P/L318F/N151K/N90K/P208A/P217A/Q86G/Q94H/R138H/R169H/T345S); experiment: T2 cell-stabilization assay (T2-binding); details: for T2-binding Ratio of MFI: T2 cells 5×10^5, peptide 50 µg/mL + β2-microglobulin 5 µg/mL, 28°C 16–18 h, then brefeldin A 10 µg/mL 37°C 3 h, FITC anti-HLA-A2, flow cytometry, MFI relative to negative control HCV C55-74 (set as 1); for binding affinity, MFI higher than the baseline: baseline = negative control HCV C55-74, called modest binding affinity
T1 construct: Human T2 cells (purchased from the American Type Culture Collection, ATCC) (ATCC No. CRL-1992) expressing the HLA-A*0201 gene; endogenous in cells; host or cells: human T2 cells (ATCC CRL-1992)
Procedure: T2 cells (5×10^5) cultured in 96-well U-bottom plates were incubated with the individual 9-mer synthetic peptides (50 µg/mL) and β2-microglobulin (5 µg/mL; Sigma-Aldrich) at 28°C for 16–18 hours. Subsequently, brefeldin A (10 µg/mL) was added and the cells were incubated at 37°C for another 3 hours, then washed and stained with fluorescence isothiocyanate (FITC)-conjugated mouse anti-human HLA-A2 antibody (SeroTec). Peptide-loaded T2 cells were acquired and analyzed on the FACScan flow cytometer using CellQuest software (Becton Dickinson). GLC-9 peptide was used as positive control (PC). The mean fluorescence intensity (MFI) represents the binding affinity of each peptide compared to MFI (set as MFI = 1) obtained from negative control (NC), which is T2 cells loaded with HCV peptide C55-74.
Twenty-five 9-mer synthetic peptides derived from the RSV F glycoprotein sequence presumed to encompass HLA-A*0201 binding motifs were synthesized (Table 1). Each was tested for its ability to bind HLA-A*0201 molecules by T2 cell-based binding assay (data not shown). The relative mean fluorescence intensity (MFI) obtained from the positive control (PC) peptide derived from Epstein-Barr virus capsid protein (GLC-9, a previously defined HLA-A*0201-restricted CTL epitope) was twofold (MFI = 1.96) compared to the baseline MFI = 1 obtained from the negative control (NC) treated with an unrelated peptide HCV C55-74 (a C57BL/6-specific CD4 epitope). […] The remaining peptides had no detectable binding to the HLA-A*0201 molecules. Apparently, the different MFIs generated by binding of RSV F-derived peptides to HLA-A*0201 reflects on the binding specificity of different peptides to a given HLA molecule.

Substance: 4: HLA-A*0201-restricted 9-mer synthetic peptide from F protein of RSV-B1 strain (ELDKYKNAV) [compound 4]
- IFN-γ ELISPOT, RSV [1]: 34.5 cytokine-secreting cells per 5×10^5 splenocytes
- IFN-γ ELISPOT, rAd-F0 [1]: 88.5 cytokine-secreting cells per 5×10^5 splenocytes
- IFN-γ level in restimulated splenocytes (ELISPOT, text grading) [1]: over 50 spots
- IL-2 ELISPOT, RSV [2]: 51.5 cytokine-secreting cells per 5×10^5 splenocytes
- IL-2 ELISPOT, rAd-F0 [2]: 49.5 cytokine-secreting cells per 5×10^5 splenocytes
- IL-2 level in restimulated splenocytes (ELISPOT, text grading) [2]: over 50 spots
- T2-binding Ratio of MFI [3]: 0.94

Substance: 5: HLA-A*0201-restricted 9-mer synthetic peptide from F protein of RSV-B1 strain (FMNYTLNNT) [compound 5]
- IFN-γ ELISPOT, RSV [1]: 12.5 cytokine-secreting cells per 5×10^5 splenocytes
- IFN-γ ELISPOT, rAd-F0 [1]: 73 cytokine-secreting cells per 5×10^5 splenocytes
- IFN-γ level in restimulated splenocytes (ELISPOT, text grading) [1]: over 50 spots
- IL-2 ELISPOT, RSV [2]: 58.5 cytokine-secreting cells per 5×10^5 splenocytes
- IL-2 ELISPOT, rAd-F0 [2]: 38 cytokine-secreting cells per 5×10^5 splenocytes
- IL-2 level in restimulated splenocytes (ELISPOT, text grading) [2]: over 50 spots
- T2-binding Ratio of MFI [3]: 0.96

Substance: 6: HLA-A*0201-restricted 9-mer synthetic peptide from F protein of RSV-B1 strain (FLLGVGSAI) [compound 6]
- IFN-γ ELISPOT, RSV [1]: 61.5 cytokine-secreting cells per 5×10^5 splenocytes
- IFN-γ ELISPOT, rAd-F0 [1]: 65 cytokine-secreting cells per 5×10^5 splenocytes
- IFN-γ level in restimulated splenocytes (ELISPOT, text grading) [1]: over 50 spots
- IL-2 ELISPOT, RSV [2]: 32 cytokine-secreting cells per 5×10^5 splenocytes
- IL-2 ELISPOT, rAd-F0 [2]: 29 cytokine-secreting cells per 5×10^5 splenocytes
- binding affinity, MFI higher than the baseline ([3]; T2 cell-based binding assay): ~10%
- T2-binding Ratio of MFI [3]: 1.14

Substance: 7: HLA-A*0201-restricted 9-mer synthetic peptide from F protein of RSV-B1 strain (HLEGEVNKI) [compound 7]
- IFN-γ ELISPOT, RSV [1]: 81 cytokine-secreting cells per 5×10^5 splenocytes
- IFN-γ ELISPOT, rAd-F0 [1]: 68.5 cytokine-secreting cells per 5×10^5 splenocytes
- IFN-γ level in restimulated splenocytes (ELISPOT, text grading) [1]: over 50 spots
- IL-2 ELISPOT, RSV [2]: 33 cytokine-secreting cells per 5×10^5 splenocytes
- IL-2 ELISPOT, rAd-F0 [2]: 68 cytokine-secreting cells per 5×10^5 splenocytes
- IL-2 level in restimulated splenocytes (ELISPOT, text grading) [2]: over 50 spots
- T2-binding Ratio of MFI [3]: 0.83

Substance: 8: HLA-A*0201-restricted 9-mer synthetic peptide from F protein of RSV-B1 strain (ALLSTNKAV) [compound 8]
- IFN-γ ELISPOT, RSV [1]: 86 cytokine-secreting cells per 5×10^5 splenocytes
- IFN-γ ELISPOT, rAd-F0 [1]: 36 cytokine-secreting cells per 5×10^5 splenocytes
- IFN-γ level in restimulated splenocytes (ELISPOT, text grading) [1]: over 50 spots
- IL-2 ELISPOT, RSV [2]: 43 cytokine-secreting cells per 5×10^5 splenocytes
- IL-2 ELISPOT, rAd-F0 [2]: 8.5 cytokine-secreting cells per 5×10^5 splenocytes
- binding affinity, MFI higher than the baseline ([3]; T2 cell-based binding assay): ~10%
- T2-binding Ratio of MFI [3]: 1.50

Substance: 9: HLA-A*0201-restricted 9-mer synthetic peptide from F protein of RSV-B1 strain (LLSTNKAVV) [compound 9]
- IFN-γ ELISPOT, RSV [1]: 1 cytokine-secreting cells per 5×10^5 splenocytes
- IFN-γ ELISPOT, rAd-F0 [1]: 27.5 cytokine-secreting cells per 5×10^5 splenocytes
- IL-2 ELISPOT, RSV [2]: 2 cytokine-secreting cells per 5×10^5 splenocytes
- IL-2 ELISPOT, rAd-F0 [2]: 5 cytokine-secreting cells per 5×10^5 splenocytes
- T2-binding Ratio of MFI [3]: 1.53

Substance: 10: HLA-A*0201-restricted 9-mer synthetic peptide from F protein of RSV-B1 strain (STNKAVVSL) [compound 10]
- IFN-γ ELISPOT, RSV [1]: 9.5 cytokine-secreting cells per 5×10^5 splenocytes
- IFN-γ ELISPOT, rAd-F0 [1]: 43 cytokine-secreting cells per 5×10^5 splenocytes
- IL-2 ELISPOT, RSV [2]: 39.5 cytokine-secreting cells per 5×10^5 splenocytes
- IL-2 ELISPOT, rAd-F0 [2]: 0 cytokine-secreting cells per 5×10^5 splenocytes
- T2-binding Ratio of MFI [3]: 0.91

Substance: 11: HLA-A*0201-restricted 9-mer synthetic peptide from F protein of RSV-B1 strain (SLSNGVSVL) [compound 11]
- IFN-γ ELISPOT, RSV [1]: 200 cytokine-secreting cells per 5×10^5 splenocytes
- IFN-γ ELISPOT, rAd-F0 [1]: 68.5 cytokine-secreting cells per 5×10^5 splenocytes
- IFN-γ level in restimulated splenocytes (ELISPOT, text grading) [1]: over 100 spots
- IL-2 ELISPOT, RSV [2]: 56.5 cytokine-secreting cells per 5×10^5 splenocytes
- IL-2 ELISPOT, rAd-F0 [2]: 51.5 cytokine-secreting cells per 5×10^5 splenocytes
- IL-2 level in restimulated splenocytes (ELISPOT, text grading) [2]: over 50 spots
- T2-binding Ratio of MFI [3]: 1.06

Substance: 12: HLA-A*0201-restricted 9-mer synthetic peptide from F protein of RSV-B1 strain (VLTSKVLDL) [compound 12]
- IFN-γ ELISPOT, RSV [1]: 116.5 cytokine-secreting cells per 5×10^5 splenocytes
- IFN-γ ELISPOT, rAd-F0 [1]: 95.5 cytokine-secreting cells per 5×10^5 splenocytes
- IFN-γ level in restimulated splenocytes (ELISPOT, text grading) [1]: over 100 spots
- IL-2 ELISPOT, RSV [2]: 36 cytokine-secreting cells per 5×10^5 splenocytes
- IL-2 ELISPOT, rAd-F0 [2]: 44 cytokine-secreting cells per 5×10^5 splenocytes
- T2-binding Ratio of MFI [3]: 0.99

Substance: RPQPRGRRQPIPKARQPEGR [HCV C55-74, reference compound]
- binding to the HLA-A*0201 molecules (in words) ([3]; T2 cell-based binding assay): no binding
- T2-binding Ratio of MFI [3]: 1
- T2-binding Ratio of MFI ([3]; listed as N): 1.00
